How the values were obtained:
[1] = system: ISG54 promoter activity in HEK293T cells; experiment: ISG54 promoter luciferase reporter in HEK293T cells; assay type: cell-based, human
Protocol: FIG. 5. BRD4 is required for ISG transcription. (A) HeLa cells were either left untreated or treated with IFN-α for 1 h in presence or absence of JQ-1 or HMBA. Using primers spanning intron-exon junctions, nuclear pre-mRNA for ISG54 and γ-actin were quantified by real-time RT-PCR and normalized to GAPDH mRNA. (B) Control and BRD4 KD cells were either left untreated or treated with IFN-α. ISG56 and BRD4 mRNA were quantified using real-time RT-PCR and normalized to GAPDH mRNA abundance. (C) HEK293T cells were transfected with pcDNA3 (Ctl) or Brd4 expression constructs along with a luciferase reporter driven by the ISG54 promoter. […] Nuclear proteins were extracted as a soluble fraction and a chromatin bound fraction and analyzed by western blotting using anti-BRD4, H4-AcK5 and actin antibodies. […] (F) ChIP assays were performed with antibodies against BRD4 and recovered ISG56, Mx1 and IRF9 TSS spanning sequences were quantified by real-time PCR, normalized to input, and represented as fold enrichment over the untreated sample.
It has been shown that BRD4 coordinates the recruitment of P-TEFb to regulate transcription of target genes, including ISGs. […] In order to focus on transcriptional events, we again monitored induction of ISG unspliced pre-mRNA. […]
Nuclear extracts were prepared and analyzed by immunoblotting as follows. […]

BRD4 recruitment sites = experiment: Global ChIP-Seq for BRD4 recruitment; assay type: cell-based, human; details: combined IFN and TSA treatment
Protocol: To directly assess the effect of IFN and HDAC inhibition on BRD4 recruitment, we assayed the presence of BRD4 at ISG promoters by ChIP. BRD4 was recruited to three typical ISG promoters after 1 h of IFN stimulation. Importantly, this recruitment was abrogated by TSA, and, by JQ-1 (FIG. 5F). We also performed global ChIP-Seq for BRD4 recruitment.
ChIP-Seq libraries were made using the KAPA Hyper Prep kit (Roche, KK8504) using 25 ng of DNA per sample, according to the manufacturer's protocol for end repair and A-tailing. For adapter ligation, 8-nt multiplexing IDT (Integrated DNA Technologies) adapters (5 μM) were used. […] Libraries were sequenced on an Illumina HiSeq 4000 instrument, using a single read 50 protocol; 8 samples were pooled in one lane of a high output single read flow cell. […]
ChIP-Seq data analysis was carried out using the HiC-Bench pipeline (Lazaris et al., 2017, BMC Genomics 18:22). GenomicTools (Tsirigos et al., 2012, Bioinformatics 28:282-283), SAMtools (Li et al., 2009, Bioinformatics 25:2078-2079), DeepTools (Ramirez et al., 2016, Nucleic Acids Res. 44:W160-165), BEDTools (Quinlan and Hall, 2010, Bioinformatics 26:841-842), BigBed Tools (Kent et al., 2010, Bioinformatics 26:2204-2207), Picard Tools (https://broadinstitute.github.io/picard/), and R (https://www.R-project.org/) were used to analyze the sequenced reads and to check the quality of alignment. […]

## CC(/C=C/C(=O)NO)=C\[C@@H](C)C(=O)c1ccc(N(C)C)cc1 [TSA, Trichostatin A]
[1]; HEK293T cells
  IFN-driven ISG54 promoter activity (luciferase): completely suppressed
[1]; HEK293T cells overexpressing Brd4, with or without TSA and IFN
  Brd4-driven ISG54 promoter expression (luciferase): No significant differences
BRD4 recruitment sites
  sites of IFN-dependent BRD4 recruitment (366 detected) abrogated: all by 4 of which were abrogated

Source: patent publication US20190351012A1, “TARGETING OF INTERFERON-STIMULATED GENE EXPRESSION TO TREAT INTERFERONOPATHIES” (New York University, priority 2018, published 2019)
